Measurements published in ChEMBL document CHEMBL3886762, “Substituted pyridizinone derivatives as PDE10 inhibitors” (2016).

Each molecule was assayed against cAMP and cAMP-inhibited cGMP 3',5'-cyclic phosphodiesterase 10A (Homo sapiens, UniProt Q9Y233) (assay: Fluorescence Polarization Assay: The fluorescence polarization assay for cyclic nucleotide phosphodiesterases was performed using an IMAP® FP kit supplied by Molecular Devices, Sunnyvale, Calif. (product #R8139). IMAP® technology has been applied previously to phosphodiesterase assays (Huang, W., et al., J. Biomol Screen, 2002, 7: 215).).
Sequence of cAMP and cAMP-inhibited cGMP 3',5'-cyclic phosphodiesterase 10A (Q9Y233 whole entry): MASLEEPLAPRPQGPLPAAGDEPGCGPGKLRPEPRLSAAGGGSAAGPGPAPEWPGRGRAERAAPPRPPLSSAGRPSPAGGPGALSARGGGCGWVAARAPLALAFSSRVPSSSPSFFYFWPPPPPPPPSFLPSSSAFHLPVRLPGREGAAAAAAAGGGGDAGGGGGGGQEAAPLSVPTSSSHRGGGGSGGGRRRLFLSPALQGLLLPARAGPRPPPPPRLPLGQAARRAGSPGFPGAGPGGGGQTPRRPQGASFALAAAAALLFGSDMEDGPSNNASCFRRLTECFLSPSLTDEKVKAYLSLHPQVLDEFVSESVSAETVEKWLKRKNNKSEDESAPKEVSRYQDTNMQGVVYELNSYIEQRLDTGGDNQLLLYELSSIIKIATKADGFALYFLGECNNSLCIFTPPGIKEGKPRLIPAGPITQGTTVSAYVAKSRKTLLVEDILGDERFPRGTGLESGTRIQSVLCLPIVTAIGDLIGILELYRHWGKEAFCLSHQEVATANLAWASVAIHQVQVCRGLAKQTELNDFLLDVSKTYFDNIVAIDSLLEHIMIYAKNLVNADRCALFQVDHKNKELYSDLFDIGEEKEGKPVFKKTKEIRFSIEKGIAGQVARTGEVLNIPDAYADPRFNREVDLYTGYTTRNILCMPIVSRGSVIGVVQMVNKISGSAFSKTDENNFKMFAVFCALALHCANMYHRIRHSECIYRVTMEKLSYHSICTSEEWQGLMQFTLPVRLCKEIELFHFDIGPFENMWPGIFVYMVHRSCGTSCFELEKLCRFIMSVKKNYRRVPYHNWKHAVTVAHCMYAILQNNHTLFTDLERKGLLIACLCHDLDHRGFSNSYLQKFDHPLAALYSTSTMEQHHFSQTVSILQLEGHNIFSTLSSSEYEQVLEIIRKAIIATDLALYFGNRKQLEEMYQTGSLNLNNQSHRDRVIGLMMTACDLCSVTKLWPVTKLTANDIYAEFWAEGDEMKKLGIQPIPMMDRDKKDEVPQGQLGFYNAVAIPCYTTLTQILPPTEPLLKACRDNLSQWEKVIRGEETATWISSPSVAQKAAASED

First: Cc1nnc(CNc2cc(OC[C@H]3C[C@@H]3c3ccc4c(n3)CCC4)nn(C)c2=O)s1
Second: Cc1nnc(CNc2cc(OC[C@H]3C[C@@H]3c3ccc4ccccc4n3)nn(C)c2=O)s1
The Ki of the first is 2-fold higher: 0.002 nM for the first, 0.001 nM for the second. The second binds more tightly here.

Compared with `Cc1nnc(CNc2cc(OC[C@H]3C[C@@H]3c3nn(C)c4ccccc34)nn(C)c2=O)s1`, `Cc1nnc(CNc2cc(OC[C@H]3C[C@@H]3c3ccn(C)n3)nn(C)c2=O)s1` is 9-fold lower in Ki: 0.905 nM for the first, 0.1 nM for the second. The second binds more tightly here.

First: Cc1ccc(CNc2cc(OC[C@H]3C[C@@H]3c3ccn(C)n3)nn(C)c2=O)nc1
Second: COc1ccc([C@H]2C[C@@H]2COc2cc(NCc3cnn(C(F)F)c3)c(=O)n(C)n2)nc1
The Ki of the first is 3.3-fold higher: 0.473 nM for the first, 0.144 nM for the second. The second binds more tightly here.
